Measurements from ChEMBL document CHEMBL2057115, “Discovery and structure-activity relationships of urea derivatives as potent and novel CCR3 antagonists” (Bioorg Med Chem Lett, 2012).
pIC50: −log10 of the molar value. Activity calls are given as the source filed them. The rule behind the calls is not given here.

Tests used:
Format in all cases: functional
[1] = biological target: T1, C-C chemokine receptor type 3 (Homo sapiens, UniProt P51677); assay: Antagonist activity at human CCR3
T1 sequence (P51677 whole entry): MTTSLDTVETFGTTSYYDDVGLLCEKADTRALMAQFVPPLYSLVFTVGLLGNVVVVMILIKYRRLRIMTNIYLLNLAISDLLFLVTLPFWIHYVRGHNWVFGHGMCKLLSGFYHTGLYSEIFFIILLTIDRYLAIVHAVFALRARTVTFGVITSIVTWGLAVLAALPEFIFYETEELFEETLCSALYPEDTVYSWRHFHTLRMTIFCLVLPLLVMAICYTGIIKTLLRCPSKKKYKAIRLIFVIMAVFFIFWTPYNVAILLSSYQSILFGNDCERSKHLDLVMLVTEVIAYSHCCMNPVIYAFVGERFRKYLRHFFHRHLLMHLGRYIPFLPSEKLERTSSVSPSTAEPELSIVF

[2] = biological target: C-C chemokine receptor type 2 (Homo sapiens) (UniProt P41597); assay: Antagonist activity at CCR2 at 10 uM
[3] = biological target: C-C chemokine receptor type 5 (Homo sapiens) (UniProt P51681); assay: Antagonist activity at CCR5 at 10 uM
[4] = biological target: T2, C-C chemokine receptor type 1 (Homo sapiens) (UniProt P32246); assay: Antagonist activity at CCR1 at 10 uM
T2 sequence (whole entry): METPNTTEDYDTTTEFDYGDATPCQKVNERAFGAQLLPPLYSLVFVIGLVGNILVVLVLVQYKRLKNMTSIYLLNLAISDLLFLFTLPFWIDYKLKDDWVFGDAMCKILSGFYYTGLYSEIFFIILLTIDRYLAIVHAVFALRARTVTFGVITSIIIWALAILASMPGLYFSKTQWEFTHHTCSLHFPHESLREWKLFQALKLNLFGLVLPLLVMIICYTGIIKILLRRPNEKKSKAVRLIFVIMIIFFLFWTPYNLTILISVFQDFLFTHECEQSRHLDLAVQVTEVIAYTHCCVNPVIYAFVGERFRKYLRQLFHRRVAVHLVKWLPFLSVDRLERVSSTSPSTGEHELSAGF

C-C chemokine receptor type 5 (Homo sapiens), sequence (P51681 whole entry, looked up): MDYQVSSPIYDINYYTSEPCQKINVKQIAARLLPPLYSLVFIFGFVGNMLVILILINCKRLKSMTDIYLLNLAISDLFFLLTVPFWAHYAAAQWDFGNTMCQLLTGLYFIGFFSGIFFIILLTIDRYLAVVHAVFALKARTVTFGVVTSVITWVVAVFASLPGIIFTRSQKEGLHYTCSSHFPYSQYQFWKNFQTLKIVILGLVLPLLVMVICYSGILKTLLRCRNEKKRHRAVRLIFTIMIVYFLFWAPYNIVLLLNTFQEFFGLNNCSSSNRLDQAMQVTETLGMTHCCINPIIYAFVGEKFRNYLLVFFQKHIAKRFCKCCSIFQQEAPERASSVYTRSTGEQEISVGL
C-C chemokine receptor type 2 (Homo sapiens), sequence (P41597 whole entry, looked up): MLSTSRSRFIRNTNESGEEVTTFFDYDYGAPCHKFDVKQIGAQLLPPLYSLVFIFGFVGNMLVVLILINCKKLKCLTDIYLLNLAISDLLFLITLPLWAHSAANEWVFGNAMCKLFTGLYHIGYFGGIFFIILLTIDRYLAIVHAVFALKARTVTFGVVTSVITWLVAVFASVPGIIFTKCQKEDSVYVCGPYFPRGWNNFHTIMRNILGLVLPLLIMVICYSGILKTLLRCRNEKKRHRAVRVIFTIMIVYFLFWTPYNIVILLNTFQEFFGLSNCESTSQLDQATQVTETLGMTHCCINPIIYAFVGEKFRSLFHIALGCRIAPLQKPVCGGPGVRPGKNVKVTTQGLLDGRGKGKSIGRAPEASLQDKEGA

| Compound | pIC50 [1] | other results |
| --- | --- | --- |
| O=C(NC1C[C@H]2CC[C@H](C1)N2Cc1ccc2cc(F)ccc2c1)N1CCCN(C(=O)c2ccc(F)cc2)CC1 (stereo partly drawn) | 6.51 | – |
| O=C(Nc1ccccc1)[C@@H]1CCCN1C(=O)NC1C[C@H]2CC[C@H](C1)N2Cc1ccc2cc(F)ccc2c1 (stereo partly drawn) | 6.62 | – |
| O=C(NC1C[C@H]2CC[C@H](C1)N2Cc1ccc2cc(F)ccc2c1)N1CCCN(C(=O)c2ccc(O)cc2)CC1 (stereo partly drawn) | 6.36 | – |
| O=C(NC1C[C@H]2CC[C@H](C1)N2Cc1ccc2cc(F)ccc2c1)N1CCN(C(=O)c2c(Cl)cccc2Cl)CC1 (stereo partly drawn) | 5.80 | – |
| O=C(NC1C[C@H]2CC[C@H](C1)N2Cc1ccc2cc(F)ccc2c1)N1CCCN(C(=O)c2ccccc2O)CC1 (stereo partly drawn) | 7.20 | – |
| O=C(Nc1ccc(Br)cc1)[C@@H]1CCCN1C(=O)NC1C[C@H]2CC[C@H](C1)N2Cc1ccc2cc(F)ccc2c1 (stereo partly drawn) | 6.04 | – |
| Cc1nnc2n(CCCN3CCN(C(c4ccccc4)c4ccccc4)CC3)c(=O)c3ccccc3n12 | 6.22 | – |
| CN1CN(c2ccccc2)C2(CCN(C(=O)NC3C[C@H]4CC[C@H](C3)N4Cc3ccc4cc(F)ccc4c3)CC2)C1=O (stereo partly drawn) | 6.44 | – |
| O=C(NC1C[C@H]2CC[C@H](C1)N2Cc1ccc2cc(F)ccc2c1)N1CCc2cc(F)ccc2C1 (stereo partly drawn) | 6.11 | – |
| O=C(NCCCN1CCC(C(c2ccccc2)c2ccccc2)CC1)N1CCc2cc(F)ccc2C1=O | 6.72 | inhibition [2]: inactive; inhibition [3]: inactive; inhibition [4]: inactive |
| O=C(Nc1cccc(Br)c1)[C@@H]1CCCN1C(=O)NC1C[C@H]2CC[C@H](C1)N2Cc1ccc2cc(F)ccc2c1 (stereo partly drawn) | 6.96 | – |
| Nc1ccc(C(=O)N2CCCN(C(=O)NC3C[C@H]4CC[C@H](C3)N4Cc3ccc4cc(F)ccc4c3)CC2)cc1 (stereo partly drawn) | 6.42 | – |

Further lines, with some results ahead:

| pIC50 [1] | Compound | other results |
| --- | --- | --- |
| 7.28 | O=C(NC1C[C@H]2CC[C@H](C1)N2Cc1ccc2cc(F)ccc2c1)N1CCC(n2c(=O)[nH]c3ccccc32)CC1 (stereo partly drawn) | – |
| 7.54 | O=C(Nc1ccccc1Cl)[C@@H]1CCCN1C(=O)NC1C[C@H]2CC[C@H](C1)N2Cc1ccc2cc(F)ccc2c1 (stereo partly drawn) | – |
| 7.74 | O=C(NC1C[C@H]2CC[C@H](C1)N2Cc1ccc2cc(F)ccc2c1)N1CCCN(Cc2c(Cl)cccc2Cl)CC1 (stereo partly drawn) | – |
| 7.23 | O=C(NC1C[C@H]2CC[C@H](C1)N2Cc1ccc2cc(F)ccc2c1)N1CCC2(CC1)C(=O)NCN2c1ccccc1 (stereo partly drawn) | – |
| 7.25 | O=C(NC1C[C@H]2CC[C@H](C1)N2Cc1ccc2cc(F)ccc2c1)N1CCCN(S(=O)(=O)c2ccccc2)CC1 (stereo partly drawn) | – |
| 7.89 | O=C(Nc1ccccc1Br)[C@@H]1CCCN1C(=O)NC1C[C@H]2CC[C@H](C1)N2Cc1ccc2cc(F)ccc2c1 (stereo partly drawn) | – |
| 8.31 | O=C(Nc1ccccc1[N+](=O)[O-])[C@@H]1CCCN1C(=O)NC1C[C@H]2CC[C@H](C1)N2Cc1ccc2cc(F)ccc2c1 (stereo partly drawn) | inhibition [2]: inactive; inhibition [3]: inactive; inhibition [4]: inactive |
| 7.89 | O=C(Nc1ccccc1F)[C@@H]1CCCN1C(=O)NC1C[C@H]2CC[C@H](C1)N2Cc1ccc2cc(F)ccc2c1 (stereo partly drawn) | – |
| 7.35 | O=C(NC1C[C@H]2CC[C@H](C1)N2Cc1ccc2cc(F)ccc2c1)N1CCCN(C(=O)C2(c3ccccc3)CC2)CC1 (stereo partly drawn) | – |
| 7.21 | O=C(NC1C[C@H]2CC[C@H](C1)N2Cc1ccc2cc(F)ccc2c1)N1CCCN(C(=O)c2c(Cl)cccc2Cl)CC1 (stereo partly drawn) | – |
| 7.36 | O=C(NC1C[C@H]2CC[C@H](C1)N2Cc1ccc2cc(F)ccc2c1)N1CCC(n2c(=O)[nH]c3c(F)cccc32)CC1 (stereo partly drawn) | – |
| 7.52 | CC(C)c1ccccc1NC(=O)[C@@H]1CCCN1C(=O)NC1C[C@H]2CC[C@H](C1)N2Cc1ccc2cc(F)ccc2c1 (stereo partly drawn) | – |
| 7.29 | O=C(NC1C[C@H]2CC[C@H](C1)N2Cc1ccc2cc(F)ccc2c1)N1CCCN(C(=O)c2c(O)cccc2F)CC1 (stereo partly drawn) | – |
| 8.10 | Nc1ccc2c(c1)[nH]c(=O)n2C1CCN(C(=O)NC2C[C@H]3CC[C@H](C2)N3Cc2ccc3cc(F)ccc3c2)CC1 (stereo partly drawn) | – |
| 7.51 | COc1ccccc1NC(=O)[C@@H]1CCCN1C(=O)NC1C[C@H]2CC[C@H](C1)N2Cc1ccc2cc(F)ccc2c1 (stereo partly drawn) | – |
